Reference: patent US11241579B2, “Monitoring and modulation of parasympathetic nervous system” (THE REGENTS OF THE UNIVERSITY OF CALIFORNIA, priority 2016, dated 2022)

Experiments:
MNS-induced AF = conditions: cited from earlier work; for effect on MNS-induced AF: previous work
[1] = tested on: intrinsic cardiac (IC) neurons; experiment: evoked action potentials of intrinsic cardiac neurons after local drug application (intracellular recording); assay type: cell-based, guinea pig; conditions: 10^-3 M, 1- to 2-s local pressure ejection; across all groups (control, PO, PO+RCV, PO+LCV)
Method: Intracellular voltage recordings from IC neurons derived from explanted IC ganglia placed in 35-37° C. Krebs-Ringer solution were obtained by impaling cells with 3 M KCl-filled glass micropipettes (40- to 80-Me resistance) using an Axoclamp 2B amplifier (Molecular Devices). Data were collected, digitized, and analyzed using pClamp 10.2 (Molecular Devices). Individual neurons were used for data analysis if their resting membrane potential (RMP) was −40 mV or less and produced action potentials (APs) with an overshoot of >20 mV. Input resistance was determined using 0.1- and 0.2-nA pulses (500 ms). Neuronal soma excitability was monitored by observing the response to a series of long depolarizing current pulses (0.1-0.6 nA, 500 ms). The number of evoked APs vs. stimulus intensity was determined to assess relative changes in excitability. Afterhyperpolarization (AHP) durations were analyzed to determine the time to reach 50% of the amplitude from the peak of the AHP to the RMP.
For each cell, after characterization of the basic electrophysiological properties, induced changes in the number of evoked APs by depolarizing pulses were again assessed immediately following a 1- to 2-s application of NE (10^-3 M; Sigma) or bethanechol (a muscarinic agonist, 10^-3 M; Sigma). […]

Compound	effect on MNS-induced AF (MNS-induced AF)	also measured
C[N+](C)(C)CCCCCC[N+](C)(C)C [Hexamethonium]	–	number of AF responses to MNS stimulation (MNS-induced AF; posttreatment, from 90% baseline): 10%
NC[C@H](O)c1ccc(O)c(O)c1 [NE, norepinephrine]	–	changes in IC neuronal sensitivity elicited by local application [1]: less than that elicited by bethanecol
CN1[C@@H]2CC[C@H]1C[C@@H](OC(=O)C(CO)c1ccccc1)C2 (stereo partly shown) [atropine]	eliminated	–
CC(C)(C)NC[C@H](O)COc1nsnc1N1CCOCC1 [timolol]	modified	–
